Measurements taken from paper PMC4538832, “Structures of the T. brucei kRNA editing factor MRB1590 reveal unique RNA-binding pore motif contained within an ABC-ATPase fold” (Nucleic Acids Research, 2015).

Molecular target: T1, MRB1590(10–668) (Trypanosoma brucei, UniProt Q57ZF2)
T1 construct: gene Tb03.30P12.70; residues 10-668 (full length 668, 72 kDa); homodimer, ATP site formed by both subunits
T1 sequence (Q57ZF2 10-668): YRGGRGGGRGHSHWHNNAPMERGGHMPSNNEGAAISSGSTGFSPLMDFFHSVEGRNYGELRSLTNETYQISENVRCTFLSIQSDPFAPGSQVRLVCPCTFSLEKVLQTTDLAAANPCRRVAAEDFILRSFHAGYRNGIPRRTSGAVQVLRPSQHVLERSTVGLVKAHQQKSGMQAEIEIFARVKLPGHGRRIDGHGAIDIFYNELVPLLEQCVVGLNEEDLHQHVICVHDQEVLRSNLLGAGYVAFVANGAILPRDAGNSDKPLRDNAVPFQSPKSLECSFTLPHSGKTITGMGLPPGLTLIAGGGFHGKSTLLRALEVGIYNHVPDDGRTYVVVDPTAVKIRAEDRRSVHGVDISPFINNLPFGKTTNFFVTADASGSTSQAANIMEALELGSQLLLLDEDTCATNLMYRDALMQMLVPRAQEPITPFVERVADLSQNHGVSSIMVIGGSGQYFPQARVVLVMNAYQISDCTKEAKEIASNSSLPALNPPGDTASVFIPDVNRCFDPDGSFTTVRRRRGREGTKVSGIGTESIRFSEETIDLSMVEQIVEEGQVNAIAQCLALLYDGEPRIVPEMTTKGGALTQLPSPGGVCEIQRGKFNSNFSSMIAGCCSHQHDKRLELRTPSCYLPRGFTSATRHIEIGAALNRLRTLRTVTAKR
Experiment: ITC
Format: binding

Structure (SMILES) | Kd [nM]
Nc1ncnc2c1ncn2[C@@H]1O[C@H](COP(=O)(O)OP(=O)(O)NP(=O)(O)O)[C@@H](O)[C@H]1O [AMP-PNP] | 1270 ± 210
Nc1ncnc2c1ncn2[C@@H]1O[C@H](COP(=O)(O)OP(=O)(O)O)[C@@H](O)[C@H]1O [ADP] | 885 ± 49
